Key:
[1] = tested on: nucleases; details: cited from earlier work
[2] = tested on: Y STRAND 3'-GAG CAU GGY' AAG GCC AGG (SEQ ID NO: 7); type: binding

Row | Molecule | nuclease resistance [1] | Tm, G-C [2] [C] | delta Tm, G-A [2] [C] | delta Tm, G-Bu [2] [C] | delta Tm, G-G [2] | delta Tm, G-T [2] [C]
1 | poly(2'-chloro-2'-deoxyuridylic acid) | resistant to various nucleases | – | – | – | – | –
2 | Nc1cc2c(ncn2[C@@H]2O[C@H](CO)[C@@H](O)[C@H]2O)c(=O)[nH]1 [3-deazaguanosine] | – | 59 | -2 | -7 | +1 C | -1
3 | poly(2'-chloro-2'-deoxycytidylic acid) | resistant to various nucleases | – | – | – | – | –

Source: patent US6262241A, “Compound for detecting and modulating RNA activity and gene expression” (Isis Pharmaceuticals, Inc., priority 1995, dated 2001)
